Results as given in patent publication US20090326014A1, “Use of 5-ht7 receptor agonists for the treatment of pain” (Laboratorios Del Dr. Esteve, S.A., priority 2006, published 2009).

Experiments:
5-HT7 receptors = 5-HT7 receptors (Homo sapiens, UniProt P34969); settings: Mahe et al., 2004; Romero et al., 2006; cited from earlier work
h5-HT1A = target: T1, h5-HT1A (Homo sapiens, UniProt P08908); assay: Radioligand binding assay, h5-HT1A; settings: h5-HT1A; read-out: Affinity [ki (nM)]
T1 sequence (P08908 1-422): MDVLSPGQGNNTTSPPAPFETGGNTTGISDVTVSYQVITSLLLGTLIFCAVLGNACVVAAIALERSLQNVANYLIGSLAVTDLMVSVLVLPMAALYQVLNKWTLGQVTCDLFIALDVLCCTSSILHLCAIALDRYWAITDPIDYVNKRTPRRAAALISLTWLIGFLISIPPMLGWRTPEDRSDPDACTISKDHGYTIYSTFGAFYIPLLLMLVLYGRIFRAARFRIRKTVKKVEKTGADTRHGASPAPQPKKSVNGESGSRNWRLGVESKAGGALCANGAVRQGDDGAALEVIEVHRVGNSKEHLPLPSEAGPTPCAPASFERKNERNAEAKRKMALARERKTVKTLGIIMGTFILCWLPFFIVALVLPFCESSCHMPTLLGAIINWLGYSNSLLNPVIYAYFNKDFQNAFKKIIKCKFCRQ

h5-HT2B = h5-HT2B (Homo sapiens, UniProt P41595); assay: Radioligand binding assay, h5-HT2B; settings: h5-HT2B; read-out: Affinity [ki (nM)]
h5-HT1B = h5-HT1B (Homo sapiens, UniProt P28222); assay: Radioligand binding assay, h5-HT1B; settings: read-out: Affinity [ki (nM)]
[1] = tested on: thermal hyperalgesia induced by partial sciatic nerve ligation; assay: Partial sciatic nerve ligation, plantar test (thermal hyperalgesia)
Procedure: Animals were housed in groups of five, provided with food and water ad libitum and kept in controlled laboratory conditions with the temperature maintained at 21±1° C. and light in 12 h cycles (on at 07:00 h and off at 19:00 h). Experiments were carried out in a soundproof and air-regulated experimental room.
The rest of compounds were prepared as aqueous solutions. Doses were calculated based on the molecular weight of the free base. All the compounds and vehicles (1% DMSO or physiological saline) were administered in a volume of 5 ml/kg through the subcutaneous (s.c.) route. When two compounds were co-administered, they were injected s.c. in opposite flanks of the mice.
This model consists of partial injury to the sciatic nerve at mid-thigh level. All surgical procedures for nerve injury were performed under isoflurane (IsoFlo®, Abbott-Laboratorios Dr. Esteve, S. A., Barcelona, Spain) anesthesia (induction: 3%; surgery: 2%). Briefly, mice were anaesthetized and the common sciatic nerve was exposed at the level of the mid-thigh of the right hind paw. Partial nerve injury was produced at about 1 cm proximal to the nerve trifurcation by tying a tight ligature around approximately 33 to 50% the diameter of the sciatic nerve using 9-0 non-absorbable virgin silk suture (Alcon surgical, Texas, USA). Ligature enclosed the outer ⅓-½ sciatic nerve whereas the rest of the nerve (inner ⅔-½) was leaved “uninjured”. The muscle was then stitched with 6-0 silk suture and the skin incision was closed with wound clips. Control, sham-operated mice underwent the same surgical procedure and the sciatic nerve was exposed, but not ligated. After surgery, animals were allowed to recover for 5 days prior to initiation of nociceptive behavioral tests (see experimental protocol below).
The effectiveness of acute treatments with 5-HT7 ligands compared to vehicle on the expression of neuropathic pain was investigated based on the following experimental protocol. […] After the habituation period, pre-injury baseline responses in each test were established during 2 consecutive days. One day after baseline measurements, nerve injury or sham operation was induced as previously described. Mice were then tested in either the von Frey or the plantar test on day 5 after the surgical procedure to monitor post-injury responses. Post-injury baseline responses of mice treated with vehicle were obtained on day 10 (basal pre-treatment). On days 11-13 mice received treatment with three different doses of 5-HT7 ligands following a Latin square design. Finally, on day 14 after surgery, baseline responses in vehicle-treated mice (basal post-treatment) were evaluated as an internal control to ensure that mechanical allodynia and thermal hyperalgesia were not influenced by previous treatments in the Latin square design.

[2] = tested on: capsaicin-induced mechanical allodynia; assay: Capsaicin test, antiallodynic protocol (1 μg capsaicin, 1 g von Frey filament); settings: for effect on capsaicin-induced mechanical allodynia: 1 g filament
Procedure: Animals were housed in groups of five, provided with food and water ad libitum and kept in controlled laboratory conditions with the temperature maintained at 21±1° C. and light in 12 h cycles (on at 07:00 h and off at 19:00 h). Experiments were carried out in a soundproof and air-regulated experimental room. The number of mice per group in each individual experiment was 16.
Capsaicin (8-methyl-N-vanillyl 6-nonamide) was dissolved in 1% DMSO (vehicle). […] Doses were calculated based on the molecular weight of the free base. All the compounds and vehicles (1% DMSO or physiological saline) were administered in a volume of 5 ml/kg through the subcutaneous (s.c.) route. When two compounds were co-administered, they were injected s.c. in opposite flanks of the mice.
Subplantar capsaicin injection initially evokes a nocifensive behavior that is characterized by lifting and guarding the injected paw and typically lasts up to 5 min following injection. […] In this study, sensitization by subplantar capsaicin injection was used to assess the effect of several 5-HT7 ligands on mechanical allodynia.
Drug treatments with 5-HT7 ligands were done 30 min before capsaicin injection and withdrawal latencies to a mechanical stimulus were determined 15 min after capsaicin injection (FIG. 1).
Mechanical allodynia was quantified by measuring the hind paw withdrawal response latency to von Frey filament stimulation. Mice were placed into compartment enclosures in a test chamber with a framed metal mesh floor and allowed to acclimate to their environment for 120 min before testing. […] The mechanical stimulus was applied to the plantar surface of the right, capsaicin-injected hind paw from below the mesh floor by using an automated testing device (dynamic plantar aesthesiometer; Ugo Basile, Italy) that lifts a straight filament (0.5 mm diameter). The filament exerted a fixed upward pressure (1 g or 0.25 g) on the plantar surface. When the animal withdrew its hind paw, the mechanical stimulus automatically stopped and the latency time was recorded. Latency was defined as the time from the onset of exposure to the filament to the cessation of the pressure when the sensor detected the withdrawal of the paw. A cut-off latency of 60 sec was imposed. Paw withdrawal latencies were measured in triplicate for each animal.
This approach enabled us to evaluate the possible antiallodynic effect of 5-HT7 ligands.
Data are presented as mean paw withdrawal latency responses in sec±S.E.M. Capsaicin-injected hind paw withdrawal responses to mechanical stimulation of treated mice were compared with those of untreated (vehicle-treated) mice. Statistical analysis to test intergroup comparisons was made using an initial one-way analysis of variance followed by the Newman-Keuls multiple comparison test. The level of significance was set at p<0.05.

h5-HT2C = h5-HT2C (Homo sapiens, UniProt P28335); assay: Radioligand binding assay, h5-HT2C; settings: h5-HT2C; read-out: Affinity [ki (nM)]
[3] = tested on: capsaicin-induced mechanical allodynia; assay: Capsaicin test, proallodynic protocol (4 ng capsaicin, 0.25 g von Frey filament); assay type: in vivo, mice; settings: 0.25 g pressure
Procedure: Alternatively, in some experiments, only 4 ng (instead of 1 μg) of capsaicin were injected into the paw and the pressure exerted by the filament was reduced to 0.25 g (instead of 1 g). […] This approach was used to test the possibility that treatments could exert a proallodynic effect. The FIG. 1 summarizes the two different experimental approaches carried out in this study.

[4] = tested on: mechanical allodynia induced by partial sciatic nerve ligation; assay: Partial sciatic nerve ligation, von Frey test (mechanical allodynia); assay type: in vivo, mice
Description: Mechanical allodynia was quantified by measuring the tactile threshold for hind paw withdrawal following von Frey filament stimulation. […] The filament exerted an increasing upward pressure on the plantar surface. The pressure increased linearly with time (0.1 g/s; from 0 to 5 g in 50 s) until the mouse withdrew its paw. […] A cut-off threshold of 5 g (50 s) was imposed.
The filament of 0.4 g was first used. […] This up-down procedure was stopped four measures after the first change in animal responding and the threshold of response was calculated. Clear paw withdrawal, shaking was considered as a nociceptive-like response.

h5-HT1F = target: T2, h5-HT1F (Homo sapiens, UniProt P30939); assay: Radioligand binding assay, h5-HT1F; settings: read-out: Affinity [ki (nM)]
T2 sequence (P30939 1-366): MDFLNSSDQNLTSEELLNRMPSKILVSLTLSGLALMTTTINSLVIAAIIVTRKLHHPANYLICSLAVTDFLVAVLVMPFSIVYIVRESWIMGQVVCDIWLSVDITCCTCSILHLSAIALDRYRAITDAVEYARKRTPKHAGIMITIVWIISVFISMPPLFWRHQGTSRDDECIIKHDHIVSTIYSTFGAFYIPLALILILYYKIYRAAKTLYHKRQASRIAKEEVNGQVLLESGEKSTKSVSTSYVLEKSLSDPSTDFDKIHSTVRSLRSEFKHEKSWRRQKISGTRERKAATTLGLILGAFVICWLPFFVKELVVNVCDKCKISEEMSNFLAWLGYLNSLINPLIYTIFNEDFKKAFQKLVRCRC

h5-HT1E = h5-HT1E (Homo sapiens, UniProt P28566); assay: Radioligand binding assay, h5-HT1E; settings: read-out: Affinity [ki (nM)]
h5-HT1D = h5-HT1D (Homo sapiens, UniProt P28221); assay: Radioligand binding assay, h5-HT1D; settings: read-out: Affinity [ki (nM)]
h5-HT6 = h5-HT6 (Homo sapiens, UniProt P50406); assay: Radioligand binding assay, h5-HT6; settings: h5-HT6; read-out: Affinity [ki (nM)]
[5] = tested on: sciatic nerve-ligatured rats; assay: Chronic constriction injury of the sciatic nerve (CCI-SN), Randall-Sellito test; settings: antagonist i.p., 5a-MSD s.c.; sciatic nerve-ligated rats
Procedure: All compounds were prepared as aqueous solutions. […] When two compounds were co-administered, one was injected s.c. and the other i.p.
Briefly, the right common sciatic nerve was exposed at mid-tight level by blunt dissection through the biceps femoris muscle. Proximal to the trifurcation, ≈10 mm of nerve was freed from adhering tissue and four loose ligatures (5.0 chromic catgut) were tied around the sciatic nerve (≈1 mm apart). […] In sham-operated control rats, an identical dissection was performed on the right side allowing the sciatic nerve to be freed from surrounding tissue, but not ligatured. Finally, muscle and skin were closed in layers with silk thread.
Mechanical nociceptive thresholds, expressed as grams (g), were measured using the Randall-Sellito test (Ugo Basile analgesimeter; Bioseb, Chaville, France). An increasing pressure was applied to the nerve-injured hindpaw of unrestrained rats until paw withdrawal (PW) and then a squeak (i.e. the vocalization threshold when the paw was held under pressure) were obtained. As PW is a spinally coordinated reflex whereas vocalization is a supra-spinal integrated response (Kayser and Christensen, 2000), this test allowed assessment of the respective contribution of spinal versus supra-spinal mechanisms.

h5-HT7 = h5-HT7 (Homo sapiens, UniProt P34969); settings: read-out: Affinity [ki (nM)]
h5-HT2A = h5-HT2A (Homo sapiens, UniProt P28223); assay: Radioligand binding assay, h5-HT2A; settings: read-out: Affinity [ki (nM)]
h5-HT2A, sequence (P28223 whole entry): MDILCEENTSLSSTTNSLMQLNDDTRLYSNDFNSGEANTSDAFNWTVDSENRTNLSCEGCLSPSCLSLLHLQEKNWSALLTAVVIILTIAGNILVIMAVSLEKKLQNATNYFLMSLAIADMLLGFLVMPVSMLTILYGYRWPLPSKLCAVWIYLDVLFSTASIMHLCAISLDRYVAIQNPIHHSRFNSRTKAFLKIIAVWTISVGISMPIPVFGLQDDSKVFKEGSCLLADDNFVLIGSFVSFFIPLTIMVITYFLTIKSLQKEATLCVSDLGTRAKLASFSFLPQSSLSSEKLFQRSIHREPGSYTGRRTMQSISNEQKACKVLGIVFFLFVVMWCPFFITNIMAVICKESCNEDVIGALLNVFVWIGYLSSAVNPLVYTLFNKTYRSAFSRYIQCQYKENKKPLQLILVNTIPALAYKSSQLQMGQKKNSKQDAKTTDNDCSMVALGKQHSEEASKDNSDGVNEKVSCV

h5-HT6, sequence (P50406 whole entry): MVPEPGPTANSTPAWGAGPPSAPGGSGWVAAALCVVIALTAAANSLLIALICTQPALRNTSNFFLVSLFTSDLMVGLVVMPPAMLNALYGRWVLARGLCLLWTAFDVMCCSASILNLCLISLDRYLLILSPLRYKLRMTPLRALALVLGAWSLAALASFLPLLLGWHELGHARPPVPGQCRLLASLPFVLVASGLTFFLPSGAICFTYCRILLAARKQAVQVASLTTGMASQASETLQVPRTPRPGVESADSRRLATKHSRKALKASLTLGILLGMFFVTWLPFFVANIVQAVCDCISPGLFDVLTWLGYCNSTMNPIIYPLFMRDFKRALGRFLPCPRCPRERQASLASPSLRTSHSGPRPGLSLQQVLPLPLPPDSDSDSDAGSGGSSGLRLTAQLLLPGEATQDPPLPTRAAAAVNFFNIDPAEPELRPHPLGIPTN
h5-HT1D, sequence (P28221 whole entry): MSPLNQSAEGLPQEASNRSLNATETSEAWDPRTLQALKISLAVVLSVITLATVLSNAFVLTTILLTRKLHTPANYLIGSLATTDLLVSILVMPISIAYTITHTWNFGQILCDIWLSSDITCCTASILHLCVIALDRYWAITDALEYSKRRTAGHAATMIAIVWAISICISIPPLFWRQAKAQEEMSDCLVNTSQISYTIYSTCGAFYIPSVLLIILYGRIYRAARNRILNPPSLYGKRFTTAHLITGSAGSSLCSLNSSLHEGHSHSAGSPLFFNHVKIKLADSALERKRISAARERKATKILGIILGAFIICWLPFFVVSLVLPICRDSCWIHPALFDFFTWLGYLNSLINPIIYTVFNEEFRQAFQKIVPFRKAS
h5-HT2C, sequence (P28335 33-458): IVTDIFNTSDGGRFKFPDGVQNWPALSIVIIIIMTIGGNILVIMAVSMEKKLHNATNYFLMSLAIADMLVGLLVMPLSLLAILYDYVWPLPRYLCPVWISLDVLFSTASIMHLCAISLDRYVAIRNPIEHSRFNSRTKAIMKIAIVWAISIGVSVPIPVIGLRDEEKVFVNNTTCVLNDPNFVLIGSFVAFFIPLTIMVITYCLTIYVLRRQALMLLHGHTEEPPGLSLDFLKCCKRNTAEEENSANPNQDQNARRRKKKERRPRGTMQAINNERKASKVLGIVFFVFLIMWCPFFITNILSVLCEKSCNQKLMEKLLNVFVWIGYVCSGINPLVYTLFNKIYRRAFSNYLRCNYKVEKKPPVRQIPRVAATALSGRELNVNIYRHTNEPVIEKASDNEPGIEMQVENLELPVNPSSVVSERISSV
h5-HT1B, sequence (P28222 whole entry): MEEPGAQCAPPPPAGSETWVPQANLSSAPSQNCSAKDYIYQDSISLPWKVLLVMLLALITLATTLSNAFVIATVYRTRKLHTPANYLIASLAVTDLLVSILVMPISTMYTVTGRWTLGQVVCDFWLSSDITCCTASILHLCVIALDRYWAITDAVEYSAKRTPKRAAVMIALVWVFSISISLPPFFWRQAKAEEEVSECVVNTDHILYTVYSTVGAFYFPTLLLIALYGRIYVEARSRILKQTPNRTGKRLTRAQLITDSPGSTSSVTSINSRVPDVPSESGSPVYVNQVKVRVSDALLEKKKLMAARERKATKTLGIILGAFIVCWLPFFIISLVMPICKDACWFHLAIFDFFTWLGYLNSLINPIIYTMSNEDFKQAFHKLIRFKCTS
5-HT7 receptors, sequence (P34969 whole entry): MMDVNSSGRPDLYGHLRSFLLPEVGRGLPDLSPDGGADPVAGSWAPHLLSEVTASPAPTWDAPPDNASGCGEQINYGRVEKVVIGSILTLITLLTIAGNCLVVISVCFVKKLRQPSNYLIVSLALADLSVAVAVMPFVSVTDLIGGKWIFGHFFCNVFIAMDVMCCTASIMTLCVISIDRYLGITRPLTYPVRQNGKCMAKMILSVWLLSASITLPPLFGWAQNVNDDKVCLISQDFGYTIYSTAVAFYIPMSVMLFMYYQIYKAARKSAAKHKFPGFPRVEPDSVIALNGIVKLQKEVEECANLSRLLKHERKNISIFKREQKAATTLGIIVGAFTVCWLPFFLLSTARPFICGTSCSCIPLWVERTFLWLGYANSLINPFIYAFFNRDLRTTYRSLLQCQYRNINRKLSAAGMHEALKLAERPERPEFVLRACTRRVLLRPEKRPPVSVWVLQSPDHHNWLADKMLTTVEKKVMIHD
h5-HT7, sequence (P34969 whole entry): as above
h5-HT1E, sequence (P28566 whole entry): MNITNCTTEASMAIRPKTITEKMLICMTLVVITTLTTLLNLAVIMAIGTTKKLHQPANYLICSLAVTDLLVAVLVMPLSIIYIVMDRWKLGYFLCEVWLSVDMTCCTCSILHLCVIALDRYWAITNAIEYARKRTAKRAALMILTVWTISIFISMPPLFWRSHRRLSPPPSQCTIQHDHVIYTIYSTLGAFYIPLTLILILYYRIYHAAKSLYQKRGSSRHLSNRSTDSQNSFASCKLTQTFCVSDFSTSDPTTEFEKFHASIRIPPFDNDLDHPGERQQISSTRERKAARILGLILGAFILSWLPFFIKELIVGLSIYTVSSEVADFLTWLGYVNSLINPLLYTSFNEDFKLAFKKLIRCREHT
h5-HT2B, sequence (P41595 whole entry): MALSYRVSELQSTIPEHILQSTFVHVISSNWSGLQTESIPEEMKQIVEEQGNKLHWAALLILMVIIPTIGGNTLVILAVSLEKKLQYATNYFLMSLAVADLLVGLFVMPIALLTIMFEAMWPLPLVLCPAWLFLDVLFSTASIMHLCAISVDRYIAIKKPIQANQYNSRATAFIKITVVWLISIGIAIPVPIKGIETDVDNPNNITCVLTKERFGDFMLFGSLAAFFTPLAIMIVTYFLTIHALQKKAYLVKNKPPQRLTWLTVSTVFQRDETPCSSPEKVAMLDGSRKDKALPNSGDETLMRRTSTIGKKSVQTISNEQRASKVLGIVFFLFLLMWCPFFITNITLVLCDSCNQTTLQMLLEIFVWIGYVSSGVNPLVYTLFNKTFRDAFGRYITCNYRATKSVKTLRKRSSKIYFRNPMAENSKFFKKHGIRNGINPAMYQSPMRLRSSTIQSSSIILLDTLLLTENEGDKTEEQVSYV

## Cc1cccc(S(=O)(=O)N(C)[C@H](C)CCN2CCC(C)CC2)c1 [SB-258719, (R)-3,N-Dimethyl-N-(1-methyl-3-(4-methylpiperidin-1-yl)propyl)benzene sulfonamide]
5-HT7 receptors
  functionality at 5-HT7 receptor as described: pure antagonist
h5-HT1A
  Ki: > 1000 nM
h5-HT2B
  Ki: > 1000 nM
h5-HT1B
  Ki: > 1000 nM
[1]; 0.1-10 mg/kg s.c.
  effect on thermal hyperalgesia (paw withdrawal latency): did not exert any effects
[1]; SB-258719 5 mg/Kg + AS-19 5 mg/kg s.c., nerve-injured mice
  effect on the antihyperalgesic effect of AS-19 when co-administered: blocked significantely the antihyperalgesic effects
[1]; SB-258719 5 mg/Kg + MSD-5a 10 mg/kg s.c., nerve-injured mice
  effect on the antihyperalgesic effect of MSD-5a when co-administered: had a tendency to revert MSD-5a (10 mg/kg) without significancy
[2]; 20 mg/kg s.c.
  effect on capsaicin-induced mechanical allodynia: significantly increased paw withdrawal latencies
[2]; 2.5, 5 and 10 mg/kg s.c.
  effect on capsaicin-induced mechanical allodynia: unaffected
[2]; AS-19 at 5 and 10 mg/kg, WAY-100635 0.3 mg/kg or SB-258719 5 mg/kg s.c.
  effect on the antiallodynic effect of AS-19 when co-administered: abolished
[2]; SB-258719 5 mg/kg + MSD-5a 10 mg/kg s.c.
  effect on the antiallodynic effect of MSD-5a when co-administered: blocked this antiallodynic effect
[2]; SB-258719 2.5 and 5 mg/kg + AS-19 5 mg/kg s.c.
  effect on the antiallodynic effect of AS-19 when co-administered: dose-dependently inhibited
h5-HT2C
  Ki: > 1000 nM
[3]; 10 mg/Kg s.c.
  proallodynic effect (paw withdrawal latency): allodynia was evidenced
[3]; s.c.
  proallodynic effect, dose-response: dose-dependently promoted allodynia
[4]; 5 mg/Kg s.c., day 11, single dose design
  effect alone on mechanical allodynia, nerve-injured mice: had no antiallodynic effect
[4]; 10 mg/kg s.c., nerve-injured mice
  effect on mechanical threshold of the nerve-injured hind paw (proallodynic): significantly decreased the mechanical threshold
[4]; SB-258719 5 mg/Kg, AS-19 5 mg/kg, MSD-5a 10 mg/kg s.c., nerve-injured mice
  effect on the antiallodynic effect of AS-19 and MSD-5a when co-administered: able to reverse the antiallodynic effect
[4]; sham-operated, 10 mg/kg s.c.
  induction of mechanical allodynia in sham-operated mice: able to induce mechanical allodynia
h5-HT1F
  Ki: > 1000 nM
h5-HT1E
  Ki: > 1000 nM
h5-HT1D
  Ki: > 1000 nM
h5-HT6
  Ki: > 1000 nM
[5]
  effect on 5a-MSD-induced anti-hyperalgesia/anti-allodynia: Blockade
h5-HT7
  Ki: 31.6 nM
h5-HT2A
  Ki: > 1000 nM
